Results from publication PMC12207590, “Substrate Specificity of the Organic Cation Transporters MATE1 and MATE2K and Functional Overlap with OCT1 and OCT2” (Journal of Medicinal Chemistry, 2025).
Read-outs that look alike come from different tables or passages of the source. Where a SMILES comes first, the peptide text is derived from it.

Tests used:
MATE1 = target: T1, MATE1 (Homo sapiens, UniProt Q96FL8); assay: Uptake ratio in MATE1-overexpressing HEK293 cells vs empty vector (2.5 μM, 1 min, HPLC-MS/MS); assay type: cell-based
T1 sequence (Q96FL8 1-570): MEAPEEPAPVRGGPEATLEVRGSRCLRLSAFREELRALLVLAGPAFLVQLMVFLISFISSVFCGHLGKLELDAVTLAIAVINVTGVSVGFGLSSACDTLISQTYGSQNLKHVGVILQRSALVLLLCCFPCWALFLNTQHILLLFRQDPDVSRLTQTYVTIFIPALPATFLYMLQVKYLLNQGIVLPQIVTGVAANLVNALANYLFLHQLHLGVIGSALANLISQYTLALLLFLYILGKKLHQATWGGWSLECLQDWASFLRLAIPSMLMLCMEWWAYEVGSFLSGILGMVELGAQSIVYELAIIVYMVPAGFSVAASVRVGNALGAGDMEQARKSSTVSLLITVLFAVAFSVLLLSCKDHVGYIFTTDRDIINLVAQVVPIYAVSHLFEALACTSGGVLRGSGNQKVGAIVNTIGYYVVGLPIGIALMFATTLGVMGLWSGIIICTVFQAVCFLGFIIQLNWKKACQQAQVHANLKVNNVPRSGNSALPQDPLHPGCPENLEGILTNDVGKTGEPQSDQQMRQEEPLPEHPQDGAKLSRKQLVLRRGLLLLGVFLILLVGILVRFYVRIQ

hCMEC [1] = assay: TS MDAI hCMEC (Table S2); assay type: cell-based, human; set-up: scale not given here
hCMEC [2] = assay: TS DPH hCMEC (Table S2); assay type: cell-based, human; set-up: scale not given here
MATE2K = MATE2K (Homo sapiens, UniProt Q86VL8); assay: Uptake ratio in MATE2K-overexpressing HEK293 cells vs empty vector (2.5 μM, 1 min, HPLC-MS/MS); assay type: cell-based
MATE2K, sequence (Q86VL8 1-566 isoform Q86VL8-3): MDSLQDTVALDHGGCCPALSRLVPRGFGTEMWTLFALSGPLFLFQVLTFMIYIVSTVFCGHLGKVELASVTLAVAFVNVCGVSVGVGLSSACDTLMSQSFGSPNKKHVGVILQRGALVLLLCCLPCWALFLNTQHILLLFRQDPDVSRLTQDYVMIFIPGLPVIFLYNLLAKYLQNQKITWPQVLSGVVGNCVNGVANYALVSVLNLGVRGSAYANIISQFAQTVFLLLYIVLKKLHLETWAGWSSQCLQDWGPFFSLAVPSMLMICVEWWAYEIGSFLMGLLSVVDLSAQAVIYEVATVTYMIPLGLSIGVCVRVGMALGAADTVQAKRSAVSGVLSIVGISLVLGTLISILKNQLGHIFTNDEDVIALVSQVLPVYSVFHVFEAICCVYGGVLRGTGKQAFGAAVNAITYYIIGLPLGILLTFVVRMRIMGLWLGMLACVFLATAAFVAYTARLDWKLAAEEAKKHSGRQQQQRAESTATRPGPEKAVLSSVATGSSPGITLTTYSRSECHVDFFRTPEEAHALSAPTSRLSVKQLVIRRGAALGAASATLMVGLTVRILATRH

[3] = fold uptake over empty vector, 2.5 μM, 1 min
[4] = mean ratio of uptake in MATE1-overexpressing HEK293 cells vs empty vector, 2.5 μM, 1 min
[5] = mean ratio of uptake in MATE2K-overexpressing HEK293 cells vs empty vector, 2.5 μM, 1 min

Compound	MATE1 ratio (MATE1; [3])	TS MDAI hCMEC (hCMEC [1]; Table S2)	TS DPH hCMEC (hCMEC [2]; Table S2)	MATE2K ratio (MATE2K; [3])	other results
NCCc1ccc(Oc2ccc(O)cc2)c(I)c1 [3-Iodothyronamine (T1AM), 3-Iodothyronamine]	–	–	–	–	MATE1 (uptake ratio) (MATE1): 1.36; MATE1 ratio (MATE1): 1.36; TS MDAI hCMEC (hCMEC [1]): 1.11; TS DPH hCMEC (hCMEC [2]): 0.86; MATE2 (uptake ratio) (MATE2K): 1.07; MATE2K ratio (MATE2K): 1.07
CNc1c(C)n(C)n(-c2ccccc2)c1=O [4-Methylaminoantipyrine]	0.21	1.26	1.20	0.83	MATE1 (uptake ratio) (MATE1; [4]): 0.21; MATE2 (uptake ratio) (MATE2K; [5]): 0.83
CCCC(=O)Nc1ccc(OCC(O)CNC(C)C)c(C(C)=O)c1 (stereo not shown) [Acebutolol]	12.97	0.88	0.84	9.08	MATE1 (uptake ratio) (MATE1; [4]): 12.97; MATE2 (uptake ratio) (MATE2K; [5]): 9.08
O=C1CCc2ccc(OCCCCN3CCN(c4cccc(Cl)c4Cl)CC3)cc2N1 [Aripiprazole]	1.32	0.68	0.72	1.26	MATE1 (uptake ratio) (MATE1; [4]): 1.32; MATE2 (uptake ratio) (MATE2K; [5]): 1.26
CCCNC(C)C(=O)Nc1c(C)csc1C(=O)OC (stereo not shown) [Articaine]	1.26	0.47	0.53	1.59	MATE1 (uptake ratio) (MATE1; [4]): 1.26; MATE2 (uptake ratio) (MATE2K; [5]): 1.59
COC(=O)[C@H](Cc1ccccc1)NC(=O)[C@@H](N)CC(=O)O [Aspartame] (HELM PEPTIDE1{D.F.[CO[*:1]]}$$$$V2.0)	1.26	1.65	1.77	1.07	MATE1 (uptake ratio) (MATE1; [4]): 1.26; MATE2 (uptake ratio) (MATE2K; [5]): 1.07
CNCC[C@@H](Oc1ccccc1C)c1ccccc1 [Atomoxetine]	1.12	0.25	0.23	1.18	MATE1 (uptake ratio) (MATE1; [4]): 1.12; MATE2 (uptake ratio) (MATE2K; [5]): 1.18
CNCCc1ccccn1 [Betahistine]	1.90	0.86	0.73	1.19	MATE1 (uptake ratio) (MATE1; [4]): 1.9; MATE2 (uptake ratio) (MATE2K; [5]): 1.19
C[N+](C)(C)CC(=O)O [Betaine]	0.80	1.09	0.98	1.07	MATE1 (uptake ratio) (MATE1; [4]): 0.8; MATE2 (uptake ratio) (MATE2K; [5]): 1.07
OC(CCN1CCCCC1)(c1ccccc1)C1CC2C=CC1C2 (stereo not shown) [Biperiden]	1.24	0.26	0.25	1.15	MATE1 (uptake ratio) (MATE1; [4]): 1.24; MATE2 (uptake ratio) (MATE2K; [5]): 1.15
O=C1CC2(CCCC2)CC(=O)N1CCCCN1CCN(c2ncccn2)CC1 [Buspirone]	–	–	–	–	MATE1 (uptake ratio) (MATE1): 2.36; MATE1 ratio (MATE1): 2.36; TS MDAI hCMEC (hCMEC [1]): 0.64; TS DPH hCMEC (hCMEC [2]): 0.56; MATE2 (uptake ratio) (MATE2K): 1.36; MATE2K ratio (MATE2K): 1.36
C=CCN1C[C@H](C(=O)N(CCCN(C)C)C(=O)NCC)C[C@@H]2c3cccc4[nH]cc(c34)C[C@H]21 [Cabergoline]	1.20	0.44	0.38	1.13	MATE1 (uptake ratio) (MATE1; [4]): 1.2; MATE2 (uptake ratio) (MATE2K; [5]): 1.13
C[N+](C)(C)CCO [Choline]	1.13	1.27	1.04	1.09	MATE1 (uptake ratio) (MATE1; [4]): 1.13; MATE2 (uptake ratio) (MATE2K; [5]): 1.09
CC(C)(C)NCC(O)c1cc(Cl)c(N)c(Cl)c1 (stereo not shown) [Clenbuterol]	–	–	–	–	MATE1 (uptake ratio) (MATE1): 1.11; MATE1 ratio (MATE1): 1.11; TS MDAI hCMEC (hCMEC [1]): 0.07; TS DPH hCMEC (hCMEC [2]): 0.36; MATE2 (uptake ratio) (MATE2K): 1.18; MATE2K ratio (MATE2K): 1.18
N[C@@H]1CON=C1O [Cycloserine (D), Cycloserine]	1.19	0.79	1.25	1.14	–
N[C@@H]1CON=C1O [Cycloserine (L), Cycloserine]	1.19	0.76	1.34	1.10	–
COc1cccc2c1C(=O)c1c(O)c3c(c(O)c1C2=O)C[C@@](O)(C(C)=O)C[C@@H]3O[C@H]1C[C@H](N)[C@H](O)[C@H](C)O1 [Daunorubicin]	–	–	–	–	MATE1 ratio (MATE1): 1.21; TS MDAI hCMEC (hCMEC [1]): 1.29; TS DPH hCMEC (hCMEC [2]): 0.86; MATE2K ratio (MATE2K): 1.01
CN(C)CC(c1ccc(O)cc1)C1(O)CCCCC1 (stereo not shown) [Desvenlafaxine]	1.12	0.61	0.49	1.09	–
CN(C)CCC=C1c2ccccc2COc2ccccc21 [Doxepin]	1.34	0.10	0.13	1.32	–

Compound	MATE1 ratio (MATE1; [3])	TS MDAI hCMEC (hCMEC [1]; Table S2)	TS DPH hCMEC (hCMEC [2]; Table S2)	MATE2K ratio (MATE2K; [3])	other results
CN1CCC[C@@H]1Cc1c[nH]c2ccc(CCS(=O)(=O)c3ccccc3)cc12 [Eletriptan]	1.41	0.46	0.21	1.22	–
CC[C@@H](CO)NCCN[C@@H](CC)CO [Ethambutol]	14.14	0.95	0.98	2.78	MATE1 ratio in this study (MATE1; Table S1, 2.5 μM, 1 min): 14.14; MATE1 ratio (MATE1; fold uptake over empty vector, 2.5 μM, 1 min, listed as ethambutol): 14; MATE2K ratio in this study (MATE2K; Table S1, 2.5 μM, 1 min): 2.78
CC(Cc1ccc(O)cc1)NCC(O)c1cc(O)cc(O)c1 (stereo not shown) [Fenoterol]	–	–	–	–	MATE1 ratio (MATE1): 14.98; MATE1 ratio in this study (MATE1): 14.98; TS MDAI hCMEC (hCMEC [1]): 1.16; TS DPH hCMEC (hCMEC [2]): 1.47; MATE2K ratio (MATE2K): 5.46; MATE2K ratio in this study (MATE2K): 5.46
CC(C)C(=O)Oc1ccc(CO)cc1[C@H](CCN(C(C)C)C(C)C)c1ccccc1 [Fesoterodine]	1.09	0.41	0.40	1.02	–
COc1ccc2c3c1O[C@H]1C[C@@H](O)C=C[C@@]31CCN(C)C2 [Galantamine]	–	–	0.80	–	MATE1 ratio (MATE1): 1.18; TS MDAI hCMEC (hCMEC [1]): 0.98; MATE2K ratio (MATE2K): 1.23
CN1C2CCCC1CC(NC(=O)c1nn(C)c3ccccc13)C2 (stereo not shown) [Granisetron]	1.22	0.28	0.43	1.25	–
CC[C@@H](C(N)=O)N1CCCC1=O [Levetiracetam]	1.19	1.19	1.17	1.28	–
COc1ccc2c(c1)N(C[C@H](C)CN(C)C)c1ccccc1S2 [Levomepromazine]	1.21	0.33	0.31	1.19	–
Cc1cccc(C(C)c2cnc[nH]2)c1C (stereo not shown) [Medetomidine]	1.11	0.96	0.79	1.21	–
CC12CC3CC(C)(C1)CC(N)(C3)C2 [Memantine]	1.03	0.14	0.24	1.18	MATE1 ratio in this study (MATE1; Table S1, 2.5 μM, 1 min): 1.03; MATE2K ratio in this study (MATE2K; Table S1, 2.5 μM, 1 min): 1.18
CCC1(c2cccc(O)c2)CCCCN(C)C1 (stereo not shown) [Meptazinol]	–	–	–	–	MATE1 ratio (MATE1): 1.21; TS MDAI hCMEC (hCMEC [1]): 0.41; TS DPH hCMEC (hCMEC [2]): 0.40; MATE2K ratio (MATE2K): 1.57
C[C@@H](O)[C@H]1C(=O)N2C(C(=O)O)=C(S[C@@H]3CN[C@H](C(=O)N(C)C)C3)[C@H](C)[C@H]12 [Meropenem]	1.32	1.00	1.20	1.33	–
Nc1nc(CC(=O)Nc2ccc(CCNC[C@H](O)c3ccccc3)cc2)cs1 [Mirabegron]	8.19	0.75	0.90	4.76	–
CNCC1CCCCC1(O)c1cccc(OC)c1 (stereo not shown) [N-Desmethyltramadol]	–	–	–	–	MATE1 ratio (MATE1): 1.12; TS MDAI hCMEC (hCMEC [1]): 0.64; TS DPH hCMEC (hCMEC [2]): 0.37; MATE2K ratio (MATE2K): 1.19
CC(C)NCC(O)COc1cccc2ccccc12 (stereo not shown) [Propranolol]	–	0.08	0.12	–	MATE2 (MATE2K; uptake ratio MATE2K-overexpressing vs empty-vector HEK293 cells, 2.5 μM, 1 min, mean): 1.14
CCCN(CCC)CCc1cccc2c1CC(=O)N2 [Ropinirole]	–	0.58	0.67	–	–
C#CCN(C)[C@H](C)Cc1ccccc1 [Selegiline]	–	–	–	–	TS MDAI hCMEC (hCMEC [1]): 0.50; TS DPH hCMEC (hCMEC [2]): 0.56
Doxycycline	–	1.45	1.45	–	–
Maraviroc	–	–	–	–	TS MDAI hCMEC (hCMEC [1]): 0.57; TS DPH hCMEC (hCMEC [2]): 1.01
